From PMC9861386, “N-Heterocyclic Carbene-Iridium Complexes as Photosensitizers for In Vitro Photodynamic Therapy to Trigger Non-Apoptotic Cell Death in Cancer Cells” (Molecules, 2023)

Key:
[1] = tested on: MCF7/FasR and MCF7/FasR/Bcl-xL cells; experiment: GSH quantification (GSH-Glo); format: cell-based, human; conditions: complex 4a all doses with 458 nm irradiation; TNFα 100 ng/mL; 72 h
Protocol: ATP and glutathione (GSH) contents were measured with the Promega CellTiter-Glo (Cat#G7570) and GSH-Glo (cat#6911) luminescent assays, respectively, according to the manufacturer’s recommendations.
Figure 13 Evaluation of apoptotic biomarkers. MCF7/FasR and MCF7/FasR/Bcl-xL cells were irradiated at 458 nm in presence of the indicated concentration of complex 4a or treated with […] TNFα for 72 h. (A) Cytosolic extracts from MCF7/FasR and MCF7/FasR/Bcl-xL cells were separated by SDS-PAGE and probed with anti-PARP, anti-caspase-7 and anti-caspase-8. Migrations indicated are: full-length PARP p113, cleaved PARP p89, full-length caspase-7 and full-length caspase-8. (B) MTT, ATP and GSH assays were evaluated in duplicate samples. Data are expressed as percent (%) of untreated cells and are the means of 3 independent experiments (***, p < 0.0001, NS, not significant).

MCF7/FasR cells = experiment: Cell death with or without pan-caspase inhibitor z-VAD-fmk, MTT; format: cell-based, human; conditions: 500 nM complex, 10 µM z-VAD-fmk, 458 nm irradiation, 72 h
Text: To determine the mechanism of cell death, we used MCF7 cells transfected to express the human Fas receptor (FasR) or doubly transfected to express the human Fas receptor and human Bcl-xL [75]. Since MCF7 cells express the TNF receptor endogenously, this allowed the study of both Fas- and TNFα-mediated apoptosis in the same cell model to assess whether cell death was dependent on the Bcl-2 family of mitochondrial proteins such as Bcl-xL. […] This is consistent with findings that death receptors such as FasR and TNFR can mediate apoptosis through both the extrinsic pathway (mitochondria-independent by directly activating executioner caspases via upstream caspase-8) and the intrinsic (mitochondrial) pathway controlled by the Bcl-2 family of proteins.
We next evaluated the effect of the pan-caspase inhibitor z-VAD-fmk on caspase signaling. As expected, the treatment with z-VAD-fmk rendered MCF7/FasR cells resistant to TNFα-induced PARP and caspase-7 processing (Figure 14A) and to the loss of cell viability (Figure 14B).
A tetrazolium-based MTT reagent (3-(4,5-dimethylthiazol-2-yl)-2,5-diphenyltetrazolium bromide) was used to determine cell viability, as previously described. After 72 h of treatment at 37 °C and 5% CO2, cells were incubated with 25 μL MTT solution (5 mg/mL; Sigma-Aldrich) for 4 h. After solubilization with 500 μL of lysis buffer (DMSO), formazan was quantified by spectrophotometry with a microplate reader at 570 nm absorbance (ClarioSTAR, BMG LabTech, Champigny-sur-Marne, France). […] All results were calculated from data obtained in at least three independent experiments.
Figure 11 Bcl-xL and z-VAD-fmk inhibited by Fas- or TNFα-induced cell death in MCF7 cells. […] Cell death was assessed by MTT assay. […]
Figure 14 Evaluation of apoptotic biomarkers. […] (B) Cell viability was evaluated in duplicate samples. Data are expressed as percent (%) of untreated cells and are the means of 3 independent experiments (***, p < 0.0001, NS, not significant).

In the case of `CC(C)[n+]1ccn2[c]1[Ir-3]13([c]4ccccc4-c4cccc[n+]41)([c]1ccccc1-c1cccc[n+]13)[c]1n(cc[n+]1C(C)C)C2.F[P-](F)(F)(F)(F)F` [Complex 4a], the “level of reduced GSH” value [1] is reported as “decreased” and the “effect of z-VAD-fmk on cell death induced by the complex” value (MCF7/FasR cells) is reported as “could not prevent cell death”.
